Experimental data published in publication PMC4521150, “Discovery of Novel Inhibitors and Fluorescent Probe Targeting NAMPT” (Scientific Reports, 2015).
Entries after “also recorded” stand apart in the source; their conditions may differ.

What was measured:
[1] = target: T1, recombinant human NAMPT (Homo sapiens, UniProt P43490); assay: HTS / fixed-concentration NAMPT activity screen (fluorometric); assay type: biochemical; settings: 20 μM compound; analogues of the 46 non-fluorescent inhibitors
T1 construct: His tag (N); made in house; host or cells: E. coli BL21-CodonPlus (DE3)-RIL, pET21a+ vector
T1 sequence (P43490 whole entry): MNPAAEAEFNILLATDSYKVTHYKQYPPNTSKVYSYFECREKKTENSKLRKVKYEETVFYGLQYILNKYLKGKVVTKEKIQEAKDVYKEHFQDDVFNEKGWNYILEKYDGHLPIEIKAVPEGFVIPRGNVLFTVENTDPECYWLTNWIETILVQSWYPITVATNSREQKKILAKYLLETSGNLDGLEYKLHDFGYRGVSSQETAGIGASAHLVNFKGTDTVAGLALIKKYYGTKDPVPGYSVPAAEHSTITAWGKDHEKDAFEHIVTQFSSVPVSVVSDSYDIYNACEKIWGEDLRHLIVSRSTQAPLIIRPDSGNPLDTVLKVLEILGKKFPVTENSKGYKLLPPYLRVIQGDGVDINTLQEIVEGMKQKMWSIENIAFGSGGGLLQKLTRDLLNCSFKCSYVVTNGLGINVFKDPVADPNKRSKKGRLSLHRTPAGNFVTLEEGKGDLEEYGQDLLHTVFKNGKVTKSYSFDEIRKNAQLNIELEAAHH
Description: Using our previously established high throughput screening (HTS) platform and recombinant human NAMPT[14][15], we performed a HTS on a chemical library containing 30000 small-molecules (Chemdiv, CA, USA). Our HTS targeting NAMPT was developed based on a fluorometric method for NAMPT activity assay by measuring the fluorescence of nicotinamide mononucleotide (NMN) derivative resulting from the NAMPT enzymatic product NMN through simple chemical reactions (Fig. 1A). The 30000 compounds were dissolved with dimethyl sulfoxide (DMSO); most of compounds were soluble at 10 mM stock solution (94.1%), some compounds insoluble at 10 mM were soluble at 2.5 mM stock solution (4.4%), and the remaining compounds insoluble at 2.5 mM (1.5%) were diluted further during HTS experiments (Fig. 1B). To guarantee the quality of screening, S/N ratio, CV and Z’ factors were monitored throughout the screenings, and all three indices met the requirements of HTS (Fig. 1C–E). After a primary screen and a secondary screen of all compounds at 20 μM, 242 compounds were selected as the hits of NAMPT inhibitors (NAMPT activity < 40%), and the hit rate was ~0.8% (Fig. 1F). […] All these 55 compounds were not reported as NAMPT inhibitors previously. Among the 55 compounds, we noted 46 compounds were non-fluorescent and 9 compounds were fluorescent (Fig. 1F). These fluorescent and non-fluorescent compounds were further studied separately.
HTS was performed using our previously reported method. 0.5 μl stock of each compound (1 mM DMSO stock) was transferred to a 96-well PCR plate for screening. In the primary screening, 5 ng NAMPT in 20 μl reaction buffer [0.4 mM phosphoribosylpyrophosphate (PRPP, Sigma), 2 mM ATP, 0.02% BSA, 2 mM DTT, 12 mM MgCl2 and 50 mM Tris-HCl (pH = 7.5)] was added into each well, the plate was incubated at 37 °C for 5 min, then 4.5 μl substrate of NAM was added to initiate the enzyme reaction, resulting in a final concentration of 2% DMSO, 2 μg/ml NAMPT, 0.2 μM NAM and 20 μM compound. After reacting at 37 °C for 15 min, the enzyme reaction was terminated by heating at 95 °C for 1 min and cooling in an ice bath. The product of NMN was detected through the following approach: after adding 10 μl 20% acetophenone in DMSO and 10 μl 2 M KOH into each well, the mixture was vortex-mixed and kept in ice bath for 2 min. Then 45 μl 88% formic acid was added and the mixture was incubated at 37 °C for 10 min. Finally, 85 μl mixtures in each well were transferred into a flat-bottom 96-well black plate (Greiner), and the fluorescence (F) was measured using a Tecan Infinity M200 plate reader (Tecan Group Ltd.) by setting the excitation and emission wavelength to 382 nm and 445 nm respectively. The last row of each 96-well plate includes six wells of background controls and six wells of reference controls. The relative enzyme activity (Activity%) regulated by specific compound was calculated according to equation (1):
F0 was the averaged fluorescence of six background controls, representing zero activity from a simulated enzyme reaction with only NAMPT but no NAM and compound; F100% was the averaged fluorescence of six reference controls, representing 100% activity from intact enzyme reaction without compound perturbation.
Compounds with Activity% less than 40% were considered as inhibitors and subjected to a secondary screen inhibition validation, in which another background control (FC0), a simulated enzyme reaction with NAMPT and compound but no NAM, was introduced to eliminate the direct and/or indirect influence from compound. At this stage, the Activity% was calculated according to equation (2): […]

[2] = system: Huh-7 cell; assay: Cell viability in Huh-7 cells; assay type: cell-based, human; settings: Huh-7, Figure S2
Description: However, IC50 values for other 5 fluorescent compounds were able to be determined (Supplemental dataset S2). We then measured the fluorescence of all 9 fluorescent compounds at a series of different concentrations.

[3] = system: HepG2 cells; assay: Live cell fluorescence imaging of compounds in HepG2 cells; assay type: cell-based, human; settings: 3 μM
Procedure: NAMPT knockdown in HepG2 cells was performed by transfection of NAMPT siRNA synthesized by Shanghai GenePharma Co., Ltd (Shanghai, China). The siRNA sequence targeting NAMPT corresponded to coding regions (5′-[…]-3′, 5′-[…]-3′) of the NAMPT gene. The nonspecific siRNA oligonucleotides (synthesized by Shanghai GenePharma Co., Ltd, Shanghai, China) were used as negative controls. 10 nM of NAMPT siRNA or nonspecific siRNA were transfected into HepG2 cells with Lipofectamine RNAiMax reagent (Invitrogen, CA, USA) according to the manufacturer’s instructions. After 24 or 48 hours, transfected cells were subjected to subsequent analysis.
For imaging experiment, HepG2 cells or primary hepatocytes were seeded into 35-mm glass bottom dishes (In Vitro Scientific). The following day, compounds were added to the medium at a final concentration of 3 μM. After 30 minutes, cells were rinsed twice with PBS (pH 7.5), then incubated in fresh culture medium and imaged on a fluorescence microscope (IX-71, Olympus) with a digital camera (Olympus). After 4 hours, these cells were imaged once again. Digital images were recorded and analyzed using ImageJ.

## CCCn1c(=O)c(-c2ccc(C(=O)NCc3cccnc3)cc2)nc2ccccc21 [M049-0244]
[1]
  NAMPT inhibition activity at 20 μM: Yes
[2]
  Effect on Huh-7 cell viability: Inhibitory effects
[3]; 30 minutes incubation, washed
  Cellular fluorescence in living HepG2 cells: fluorescence was obviously detected within the cell; also recorded: significantly stained living HepG2 cells
[3]; HepG2, NAMPT siRNA vs nonspecific siRNA
  Cellular fluorescence after NAMPT knockdown (RNAi-NAMPT): significantly reduced the fluoresecence
